Entries after “also recorded” stand apart in the source; their conditions may differ.
Columns and labels:
[1] = biological target: T1, mouse MBLAC1 (Mus musculus, UniProt Q8BWY4); experiment: Backscattering interferometry (BSI) binding of unlabeled Cef to lysates of TET-induced T-REx cells expressing mouse MBLAC1; details: 5 μM and 50 μM
T1 construct: mouse and human Mblac1 cDNAs were subcloned into pcDNA5/FRT/TO vector; expressed in transfected cells; cell lysate
T1 sequence (Q8BWY4 1-260): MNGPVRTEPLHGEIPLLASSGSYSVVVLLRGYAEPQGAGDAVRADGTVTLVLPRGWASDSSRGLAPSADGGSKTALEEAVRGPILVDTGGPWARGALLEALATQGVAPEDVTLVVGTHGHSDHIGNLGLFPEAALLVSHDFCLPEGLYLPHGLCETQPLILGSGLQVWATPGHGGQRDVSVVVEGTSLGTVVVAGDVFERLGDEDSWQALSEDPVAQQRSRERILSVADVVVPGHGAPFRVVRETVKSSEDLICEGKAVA
Protocol: (§1) HEK Flp-In T-REx-293 cells (T-REx) expressing mouse or human MBLAC1 proteins were generated per manufacturer's (ThermoFisher, Waltham, Mass., USA) instructions. Briefly, mouse and human Mblac1 cDNAs were subcloned into pcDNA5/FRT/TO vector and then co-transfected with pOG44 plasmid (encoding Flp recombinase) by lipid based transfection into Flp-In T-REx-293 cells using TransIT-LT1 (Mirus, Madison, Wis.). Stable integrants were isolated following selection with 100 μg/ml hygromycin. Expression of MBLAC1 protein was induced by addition of 1 μg/mL tetracycline (TET) to the media. […]
(§2) To assess the binding of unlabeled Cef with MBLAC1 in cell and tissue lysates, BSI was utilized. […] RI changes are quantified by comparing fringe shifts between test and reference samples.
(§3) Lysates for BSI contained Cef at concentrations of 0 μM, 5 μM, and 50 μM and concentrations of either 300 μg/mL (mouse cell lysates) or 100 μg/mL (human cell lysates and mouse brain lysates) protein. […] To obtain BSI signals, the sample with 0 μM Cef was injected into the channel in a stop-flow manner using a vacuum and allowed to reach temperature and pressure equilibrium (˜10 sec) at which point the phase value (BSI signal) was measured for 20 sec. Specific BSI signal was determined by subtracting Cef only signal from Cef-lysate signals. […]

[2] = system: MBLAC1 WT and MBLAC1 KO mice; experiment: Effect of repeated Cef on cocaine-induced locomotion, open field; type: in vivo, mouse; details: Cef 200 mg/kg IP once daily 10 days, cocaine 10 mg/kg 24 h later
Protocol: Animals: All mice were used in accordance with protocols approved by the Florida Atlantic University Institutional Animal Care and Use Committee. Mice were group-housed on a 12 h/12 h light/dark cycle and given ad libitum access to food and water. Breeding was accomplished with mating of heterozygous males with heterozygous females. Male and female mice 11-13 weeks old at the start of the experiment were used in testing the effects of repeated ceftriaxone on response to cocaine in the open field assay. Data from males and females were combined.
Repeated Cef treatment/acute cocaine administration: MBLAC1 wild-type (WT, MBLAC1^+/+) and knockout mice (MBLAC1^−/−) were used in this experiment. Mice were injected IP once daily for 10 days with 200 mg/kg ceftriaxone (CEF) or saline. Twenty-four hours following the last CEF injection, mice were injected with 10 mg/kg cocaine or saline followed immediately by testing in open field activity chambers (Med Associates, Fairfax, Vt.) for 60 minutes. Locomotor activity was evaluated by photocells in the X, Y and Z dimensions. Horizontal beam breaks, vertical beam breaks, and repetitive movements were recorded and measures, including distance traveled, vertical rearing and stereotypic counts, were calculated. Data were analyzed in 5 min time bins within session, and for the first 30 min following cocaine injection. Data were analyzed by two-way ANOVA repeated measures, with time bin as the repeated measure, or by two-way ANOVA for 30 min cumulated data. At the end of behavior, mice were euthanized by CO2.
The methods were performed essentially as described in Tallarida et al. Neurosci Lett vol. 556, p. 155-159, 2013.

[3] = biological target: T2, MBLAC1 (Mus musculus, UniProt Q8BWY4); experiment: BSI binding to mouse frontal cortex lysates, with and without MBLAC1 immunodepletion
T2 construct: from tissue; host or cells: mouse (C57BL/6J) frontal cortex, 100,000 x g supernatant
T2 sequence (Q8BWY4 1-260): T1 sequence (Q8BWY4 1-260)
Protocol: Wild type C57BL/6J mice (Jackson Labs, Bar Harbor, Me.) were rapidly decapitated and frontal cortex was dissected. Tissue was homogenized in ice cold 20 mM HEPES buffer (pH 7.4) using a Dounce homogenizer (Wheaton, Millville, N.J.), and then sonicated (F60 sonic dismembrator, Fisher Scientific, Waltham, Mass.) using 5, 1 sec pulses. Lysates were then centrifuged at 100,000×g for 30 min. Supernatants were collected, diluted with 2× lysis buffer (40 mM HEPES, 220 mM KCl, 20 mM NaCl, 4 mM MgCl, 10 mM KH2PO4, 500 μM ZnSO4) and protein concentration determined (BCA Protein Assay, ThermoFisher, Waltham, Mass.). […]
as §2, §3

[4] = biological target: T3, human MBLAC1 (Homo sapiens, UniProt A4D2B0); experiment: Backscattering interferometry (BSI) binding to lysates of TET-induced T-REx cells expressing human MBLAC1; details: 5 μM and 50 μM
T3 construct: mouse and human Mblac1 cDNAs were subcloned into pcDNA5/FRT/TO vector; expressed in transfected cells; cell lysate
T3 sequence (A4D2B0 1-266): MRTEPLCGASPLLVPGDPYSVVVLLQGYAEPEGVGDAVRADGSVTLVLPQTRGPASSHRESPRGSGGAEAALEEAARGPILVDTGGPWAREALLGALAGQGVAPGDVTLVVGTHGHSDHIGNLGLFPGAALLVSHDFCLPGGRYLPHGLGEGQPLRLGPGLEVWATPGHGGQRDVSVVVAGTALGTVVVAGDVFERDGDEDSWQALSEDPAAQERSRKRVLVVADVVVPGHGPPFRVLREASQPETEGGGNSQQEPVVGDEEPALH
Protocol: as §1, §2, §3

[5] = system: MBLAC1; experiment: MBLAC1 pulldown with Cef-conjugated CN-Br Sepharose beads, competition by free Cef; type: binding

| BSI binding signal ([3]; mouse frontal cortex lysate, 5 μM and 50 μM) | Mean reduction in MBLAC1 binding to immobilized Cef ([5]; 50 μM free Cef preincubated with lysate, n=6) [%] | SMILES | BSI binding signal [1] | Effect on cocaine-induced locomotion (ambulatory distance, first 30 min) ([2]; MBLAC1 KO mice) | Effect on cocaine-induced locomotion (ambulatory distance, first 30 min) ([2]; MBLAC1 KO mice, listed as CEF) | Effect on cocaine-induced locomotion (ambulatory distance, first 30 min) ([2]; MBLAC1 WT mice) | Effect on cocaine-induced locomotion (ambulatory distance, first 30 min) ([2]; MBLAC1 WT mice, listed as CEF) | BSI binding signal ([3]; mouse frontal cortex lysate immunodepleted of MBLAC1 with antibody #80) | BSI binding signal [4] | MBLAC1 capture by Cef-conjugated beads ([5]; lysates preincubated with Cef 50 μM) |
| --- | --- | --- | --- | --- | --- | --- | --- | --- | --- | --- |
|  |  | CC(=O)OCC1=C(C(=O)O)N2C(=O)[C@@H](NC(=O)CCC[C@@H](N)C(=O)O)[C@H]2SC1 [CephC, cephalosporin C] | non-significant reduction in BSI signal; also recorded: a significant CephC BSI signal (FIG. 3D) was not seen |  |  |  |  |  |  |  |
| shows binding signal with Cef | 52.4±9.3 | CO/N=C(\C(=O)N[C@@H]1C(=O)N2C(C(=O)O)=C(CSc3nc(=O)c(=O)[nH]n3C)CS[C@H]12)c1csc(N)n1 [Cef, ceftriaxone] | concentration-dependent, heat-sensitive BSI binding signals; also recorded: significant, dose-dependent BSI signals; also recorded: Significant dose-dependent BSI signals | no ability to attenuate cocaine actions | had no effect on the response to cocaine | the locomotor activating effects of cocaine were lost | completely blocked the effects of cocaine | eliminated Cef binding activity; also recorded: the Cef binding signal was abolished | concentration-dependent, heat-sensitive BSI binding signals; also recorded: significant, dose-dependent BSI signals | significantly diminished MBLAC1 capture |

— US11693005B2, “Methods for identifying treatments that reduce the actions of substances of abuse and addiction” (Florida Atlantic University Board of Trustees, priority 2018, dated 2023)
